Laboratory results published in ChEMBL document CHEMBL1126745, “2,2-Dialkylnaphthalen-1-ones as new potassium channel activators” (J Med Chem, 1993).

Tests used:
[1] = system: Rattus norvegicus; assay: Change in systolic blood pressure at intervals of 1 hr after oral administration of 1 mg/kg of compound in spontaneously hypertensive rats (in vivo); type: functional, Artery
[2] = species on record: Rattus norvegicus; assay: In vitro inhibition of noradrenaline-induced contractions in rat portal vein; type: functional
[3] = species on record: Cavia porcellus; assay: In vitro inhibition of spontaneous tone of guinea pig tracheal spirals; type: functional; conditions: Trachea
[4] = species on record: Rattus norvegicus; assay: Percentage of inhibition of noradrenaline-induced contractions in rat portal vein at 10 uM (in vitro); type: functional

CC1(C)C=C(N2Cc3ccccc3C2=O)c2cc(C#N)ccc2C1=O
Max fall in blood pressure [1]: 34 mmHg
IC50 [2]: 0.6 µM
IC50 [3]: 1.3 µM

CC1(C)C=C(N2CCCC2=O)c2cc(Br)ccc2C1=O
IC50 [2]: 10 µM
IC50 [3]: 7.3 µM

CC1(C)C(=O)c2ccc(S(=O)(=O)c3ccccc3)cc2[C@@H](n2ccccc2=O)[C@@H]1O
IC50 [2]: 0.3 µM
IC50 [3]: 0.7 µM

CC1(C)C(=O)c2ccc(C#N)cc2[C@@H](NC(=O)c2ccccn2)[C@@H]1O
IC50 [2]: 23 µM
IC50 [3]: > 10 µM

CC1(C)C(=O)c2ccc(C#N)cc2[C@@H](NC(=O)c2ccccc2)[C@@H]1O
Max fall in blood pressure [1]: 31 mmHg
IC50 [3]: 1.8 µM

CC(=O)N[C@@H]1c2cc(C#N)ccc2C(=O)C(C)(C)[C@H]1O
Max fall in blood pressure [1]: 28.6 mmHg
IC50 [2]: 45 µM
IC50 [3]: 8.7 µM

CC1(C)C(=O)c2ccc(Br)cc2C(N2CCCC2=O)[C@@H]1O (stereo partly drawn)
Max fall in blood pressure [1]: 39 mmHg
inhibition at 10 µM [4]: 40%
IC50 [3]: > 10 µM

CC1(C)C=C(n2ccccc2=O)c2ccc(Br)cc2C1=O
Max fall in blood pressure [1]: 37 mmHg
IC50 [2]: 2.7 µM
IC50 [3]: 4.7 µM

CC1(C)C=C(N2CCCCC2=O)c2cc(Br)ccc2C1=O
Max fall in blood pressure [1]: 43.6 mmHg
IC50 [2]: 8 µM
IC50 [3]: 3.5 µM

CC1(C)C(=O)c2ccc(Cl)cc2[C@@H](n2ccccc2=O)[C@@H]1O
inhibition at 10 µM [4]: 0%

CC1(C)C(=O)c2ccc(Br)cc2[C@@H](n2ccccc2=O)[C@@H]1O
Max fall in blood pressure [1]: 31 mmHg
IC50 [2]: 28 µM
IC50 [3]: > 10 µM

CC1(C)C(=O)c2ccc(C#N)cc2[C@@H](Oc2ccccn2)[C@@H]1O
Max fall in blood pressure [1]: 43 mmHg
IC50 [2]: 25 µM
IC50 [3]: 5.5 µM

CC1(C)C=C(n2ccccc2=O)c2cc(S(=O)(=O)c3ccccc3)ccc2C1=O
Max fall in blood pressure [1]: 32.6 mmHg
IC50 [2]: 0.1 µM
IC50 [3]: 0.5 µM

CC1(C)C(=O)c2cc(Cl)c(Cl)cc2[C@@H](n2ccccc2=O)[C@@H]1O
Max fall in blood pressure [1]: 52 mmHg
IC50 [2]: 1.5 µM
IC50 [3]: 5 µM

CCC1(CC)CCc2cc(OC)ccc2C1=O
Max fall in blood pressure [1]: 83 mmHg
IC50 [2]: 8 µM
IC50 [3]: > 10 µM

CC1(C)C(=O)c2ccc(Br)cc2[C@@H](N2CCS/C2=N\C#N)[C@@H]1O
Max fall in blood pressure [1]: 30.5 mmHg
inhibition at 10 µM [4]: 26%

CC(=O)N(C)c1ccc2c(c1)C(n1ccccc1=O)=CC(C)(C)C2=O
Max fall in blood pressure [1]: 74 mmHg
IC50 [2]: 4.3 µM
IC50 [3]: 3.1 µM

CC1(C)C(=O)c2ccc(C(F)(F)F)cc2[C@@H](n2ccccc2=O)[C@@H]1O
IC50 [3]: 1.4 µM

COC(=O)c1ccc2c(c1)C(n1ccccc1=O)=CC(C)(C)C2=O
Max fall in blood pressure [1]: 39 mmHg
IC50 [2]: 2.7 µM
IC50 [3]: 8.5 µM

CC1(C)C=C(N2CCCC2=O)c2cc(Cl)ccc2C1=O
Max fall in blood pressure [1]: 32.5 mmHg
inhibition at 10 µM [4]: 0%
IC50 [3]: > 10 µM

C=CCn1nc(O[C@@H]2c3cc(C#N)ccc3C(=O)C(C)(C)[C@H]2O)ccc1=O
IC50 [2]: 14 µM
IC50 [3]: 3.9 µM

COc1ccc(C(=O)N[C@@H]2c3cc(C#N)ccc3C(=O)C(C)(C)[C@H]2O)cc1
IC50 [2]: 12 µM
IC50 [3]: 12.2 µM

CO/N=C1\c2ccc(C#N)cc2C(n2ccccc2=O)=CC1(C)C
Max fall in blood pressure [1]: 32.4 mmHg
IC50 [2]: 25 µM
IC50 [3]: > 10 µM

CC1(C)C=C(n2ccccc2=O)c2cc(C#N)ccc2/C1=N\O
Max fall in blood pressure [1]: 28 mmHg
inhibition at 10 µM [4]: 27%
IC50 [3]: 12.5 µM

CC(=O)N(C)c1ccc2c(c1)C(N1CCCC1=O)=CC(C)(C)C2=O
Max fall in blood pressure [1]: 23 mmHg
IC50 [2]: 17 µM
IC50 [3]: 2.5 µM

CC1(C)C(=O)c2ccc(Br)cc2[C@@H](N2Cc3ccccc3C2=O)[C@@H]1O
Max fall in blood pressure [1]: 24 mmHg
IC50 [2]: 3.1 µM
IC50 [3]: > 10 µM

CC1(C)C=C(n2ccccc2=O)c2cc(Cl)c(Cl)cc2C1=O
Max fall in blood pressure [1]: 58 mmHg
IC50 [2]: 0.7 µM
IC50 [3]: 0.1 µM

CCC1(CC)C=C(n2ccccc2=O)c2cc(Br)ccc2C1=O
Max fall in blood pressure [1]: 44 mmHg
IC50 [2]: 3.3 µM
IC50 [3]: 8 µM

C=Cc1ccc2c(c1)C(n1ccccc1=O)=CC(C)(C)C2=O
Max fall in blood pressure [1]: 30.6 mmHg
IC50 [2]: 1.5 µM
IC50 [3]: 4.6 µM

CC1(C)C(=O)c2ccc(C#N)cc2C(N2CCCC2=O)[C@@H]1O (stereo partly drawn)
Max fall in blood pressure [1]: 23 mmHg
inhibition at 10 µM [4]: 12%
IC50 [3]: > 10 µM

CC1(C)C(=O)c2ccc(C#N)cc2[C@@H](n2ccccc2=O)[C@@H]1OC=O
Max fall in blood pressure [1]: 42 mmHg
IC50 [3]: 4.3 µM

CC(=O)O[C@H]1[C@H](n2ccccc2=O)c2cc(C#N)ccc2C(=O)C1(C)C
IC50 [2]: 23 µM
IC50 [3]: 2 µM

COC1c2ccc(Br)cc2C(n2ccccc2=O)=CC1(C)C (stereo not drawn)
Max fall in blood pressure [1]: 28 mmHg
inhibition at 10 µM [4]: 22%
IC50 [3]: 17 µM

CC1(C)C=C(NC(=O)c2ccccn2)c2cc(C#N)ccc2C1=O
Max fall in blood pressure [1]: 22.5 mmHg
IC50 [2]: 9 µM
IC50 [3]: 3.1 µM

CC1(C)C=C(n2ccccc2=O)c2cc(Cl)ccc2C1=O
Max fall in blood pressure [1]: 53.7 mmHg
IC50 [2]: 1.4 µM
IC50 [3]: 1.1 µM

CC(=O)N(C)c1ccc2c(c1)[C@@H](n1ccccc1=O)[C@H](O)C(C)(C)C2=O
Max fall in blood pressure [1]: 94 mmHg
IC50 [2]: 33 µM
IC50 [3]: > 10 µM

CC1(C)C(=O)c2ccc(C#N)cc2[C@@H](NC(=O)c2ccoc2)[C@@H]1O
Max fall in blood pressure [1]: 58 mmHg
inhibition at 10 µM [4]: 24%

CC1(C)C=C(N2CCCC2=O)c2ccc(C#N)cc2C1=O
Max fall in blood pressure [1]: 24.5 mmHg
inhibition at 10 µM [4]: 0%

CCC1(CC)C=C(n2ccccc2=O)c2cc(C#N)ccc2C1=O
Max fall in blood pressure [1]: 35.6 mmHg
IC50 [2]: 7.8 µM
IC50 [3]: 2.6 µM

CC1(C)C(=O)c2ccc(Br)cc2[C@@H](Oc2ccccn2)[C@@H]1O
Max fall in blood pressure [1]: 33 mmHg
inhibition at 10 µM [4]: 32%

CCc1ccc2c(c1)C(n1ccccc1=O)=CC(C)(C)C2=O
Max fall in blood pressure [1]: 58 mmHg
IC50 [2]: 5.5 µM
IC50 [3]: 5.1 µM

CC1(C)C(=O)c2ccc(F)cc2[C@@H](n2ccccc2=O)[C@@H]1O
Max fall in blood pressure [1]: 21.5 mmHg
inhibition at 10 µM [4]: 0%

COc1ccc2c(c1)C(n1ccccc1=O)=CC(C)(C)C2=O
IC50 [2]: 21 µM
IC50 [3]: 3.1 µM

CC1(C)C=C(n2ccccc2=O)c2cc(F)ccc2C1=O
Max fall in blood pressure [1]: 35 mmHg
IC50 [2]: 19 µM
IC50 [3]: 3.9 µM

COC(=N)c1ccc2c(c1)C(n1ccccc1=O)=CC(C)(C)C2=O
Delta blood pressure [1]: 27.5 mmHg
IC50 [2]: 11 µM
IC50 [3]: 3.1 µM

CC1(C)C(=O)c2ccc(C#N)cc2[C@@H](NC(=O)c2cccnc2)[C@@H]1O
Max fall in blood pressure [1]: 50 mmHg
IC50 [2]: 2.8 µM
IC50 [3]: 4.1 µM

CC1(C)C(=O)c2ccc(Br)cc2[C@@H](Oc2ccc(=O)[nH]n2)[C@@H]1O
IC50 [2]: 0.8 µM
IC50 [3]: 4.4 µM

CC1(C)C=C(N2CCCC2=O)c2ccc(Br)cc2C1=O
Max fall in blood pressure [1]: 54.5 mmHg
inhibition at 10 µM [4]: 11%
IC50 [3]: > 10 µM

Cn1nc(OC2=CC(C)(C)C(=O)c3ccc(C#N)cc32)ccc1=O
Delta blood pressure [1]: 24 mmHg
inhibition at 10 µM [4]: 0%

CC1(C)C=C(n2ccccc2=O)c2ccc(C#N)cc2C1=O
Max fall in blood pressure [1]: 41 mmHg
inhibition at 10 µM [4]: 0%
IC50 [3]: > 10 µM

CC(=O)c1ccc2c(c1)C(n1ccccc1=O)=CC(C)(C)C2=O
Max fall in blood pressure [1]: 56.5 mmHg
IC50 [2]: 3.3 µM
IC50 [3]: 1 µM

CC1(C)C(=O)c2ccc(C#N)cc2[C@@H](N2Cc3ccccc3C2=O)[C@@H]1O
Max fall in blood pressure [1]: 76 mmHg
IC50 [2]: 0.5 µM
IC50 [3]: 1.1 µM

CC1(C)C(=O)c2ccc(C#N)cc2[C@@H](n2ccccc2=O)[C@@H]1O
Max fall in blood pressure [1]: 84 mmHg
IC50 [2]: 14 µM
IC50 [3]: > 10 µM

CC1(C)C(=O)c2cc(Br)ccc2[C@@H](n2ccccc2=O)[C@@H]1O
Max fall in blood pressure [1]: 29.3 mmHg
IC50 [2]: 42 µM

CC(=O)O[C@H]1[C@H](n2ccccc2=O)c2cc(Br)ccc2C(=O)C1(C)C
Max fall in blood pressure [1]: 29 mmHg
inhibition at 10 µM [4]: 38%
